# Test results from patent US20080254152A1, “Methods for Reducing the Effects of Stress on Skin Condition” (priority 2003, published 2008).
# What was measured:
# [1] = tested on: IL-6 expression in neonatal-derived human dermal fibroblasts; assay: IL-6 in neonatal-derived human dermal fibroblasts after chronic dexamethasone and PMA; format: cell-based; conditions: GC-treated neonatal fibroblasts after PMA; T6 and T24; data not shown
# Protocol: The IL-6 protein concentration of each tissue culture supernatant was assayed using the QuantiGlo Q6000 Human IL-6 assay (R&D Systems) according to the manufacturer's instructions.
# Six IL-6 standards were prepared in calibrator diluent at concentrations ranging from 0 to 3000 pg/ml. 50 μl of assay diluent and 150 μl of tissue culture supernatant or standard was added to duplicate wells. The plate was incubated at room temperature for 2 hours on a horizontal orbital plate shaker before being washed four times with wash buffer. 200 μl of IL-6 conjugate was added to each well and the plate incubated at room temperature for 3 hours on a horizontal orbital plate shaker (˜500 rpm). The plate was washed as before. […] The relative light unit (RLU) of each well was determined using a luminometer set with 1 minute lag time, 1 second/well read time, summation mode and automatic gain on.
# A standard curve was plotted of mean RLU versus IL-6 concentration and the line of best fit calculated by regression analysis. […]
# In this study, to understand better the effect of chronic stress on dermal matrix remodelling in the skin, we have therefore measured changes in markers of dermal matrix degradation (MMP-1) and dermal matrix synthesis (Procollagen I) in chronically glucocorticoid-treated primary human dermal fibroblasts, following acute stress with PMA. […]
# [2] = tested on: procollagen-1 expression in human neonatal dermal fibroblast cells; assay: Procollagen I C-peptide EIA in neonatal-derived human dermal fibroblasts after chronic dexamethasone and PMA; format: cell-based; conditions: chronic dexamethasone then 1 μM PMA; T6; neonatal fibroblasts; FIG. 8
# Protocol: In this study, to understand better the effect of chronic stress on dermal matrix remodelling in the skin, we have therefore measured changes in markers of dermal matrix degradation (MMP-1) and dermal matrix synthesis (Procollagen I) in chronically glucocorticoid-treated primary human dermal fibroblasts, following acute stress with PMA. The experimental approach is similar to that described in example 1 except that the cells tested are dermal fibroblasts and cells are assayed for expression of procollagen-1, MMP-1 and MMP-9 expression.
# Primary human dermal fibroblast cells were cultured and passaged in DMEM (Gibco) supplemented with 10% FBS (foetal bovine serum). Cells were routinely plated out in 6-well tissue culture dishes, at a seeding density of ˜5000 cells/cm^2 in 2 ml complete medium/well for 24 hours, and incubated at 37° C. in 5% CO2. Media was removed and cells grown in DMEM & 1% FBS, 24 hours prior to treatments.
# Pre-treatment and test solutions were prepared in DMEM containing low serum (1% FBS). […] Following this, the cells were oxidatively stressed for 24 hours with 1 μM PMA (Sigma P8139).
# Collagen I is synthesised as a precursor molecule, Procollagen I. The amount of free propeptide therefore, reflects stoichiometrically, the amount of collagen I synthesised. The Procollagen Type I C-peptide Enzyme Immunoassay (EIA) kit allows for the quantitative determination of Procollagen Type I C-peptide (PIP).
# Eight PIP standards were prepared in sample diluent at concentrations ranging from 0 to 640 ng/ml. 100 μl of antibody-Peroxidase conjugate solution and 20 μl of cell lysate (1 μg protein) or standard was added to duplicate wells. The plate was sealed and incubated at 37° C. for 3 hours before being washed four times with 400 μl of PBS. Each well then received 100 μl of substrate solution and the plate incubated at room temperature, on the benchtop, for 15 minutes. After this period, 100 μl stop solution was added to each well and absorbance measured at 450 nm with a plate reader.
# A standard curve was plotted of mean absorbance versus PIP concentration and the line of best fit calculated by regression analysis. The unknown concentration of PIP in all the samples was estimated from this.
# The same methods were used as described in Example 2, except that various test agents were added to the cells during the pre-treatment period.
smiles,measurement,setting,value
C[C@@H]1C[C@H]2[C@@H]3CCC4=CC(=O)C=C[C@]4(C)[C@@]3(F)[C@@H](O)C[C@]2(C)[C@@]1(O)C(=O)CO [Dexamethasone],Reduction in Interleukin-6 synthesis vs vehicle treated cells,[1],~80%
same,"Inhibition of Procollagen-1 synthesis vs control, untreated cells",[2],~50%
